Where a SMILES comes first, the peptide text is derived from it. [ ]: non-standard residue; d: D form. The star is where a group is joined. Dolaproine = CO[C@@H]([C@@H]1CCCN1)[C@@H](C)C(=O)O; Dil = CC[C@H](C)[C@H](NC)[C@@H](CC(=O)O)OC; X1 = C[C@@H](N*)[C@@H](O)c1ccccc1; NMeV = CN[C@H](C(=O)O)C(C)C
System: NCI-N87 cells
Experiment: Cytotoxicity assay (Cell Titer Glo cell viability)
Type: cell-based
Conditions: 144 hours, CTG
Source text: Cell viability assay was used to detect the cytotoxicity of an ADC antibody on NCI-N87 cells. This method can quantitatively analyze and specifically detect the cytotoxicity of an ADC antibody on NCI-N87 cells. Cells cultured without addition of ADC antibody were used as a blank control to determine the threshold of the cell viability detection. A signal below this threshold was considered as a specific signal generated after the ADC antibody killed cells. NCI-N87 cells (5×10^3 cells/well) were resuspended in a RPMI1640 medium containing 15% FBS and inoculated into a black 96-well plate with transparent bottom in a volume of 50 μL. The 96-well plate was placed in an incubator set at 37° C. and 5% CO2 overnight. After the overnight incubation, 50 μL of different concentrations of ADC antibodies or MMAE (starting from 400 nM, 4-fold serial dilution) were added to the 96-well plate (making the total volume to 100 μL/well), and the 96-well plate was placed in an incubator set at 37° C. and 5% CO2 for 144 hours. Cell Titer Glo (50 μL/well) was added to each well and the mixture was thoroughly mixed. The luciferase intensity was read using Envision. The cytotoxic effect was calculated using the following formula: cytotoxicity %=100* (RFUcell only−RFUsample)/RFUcell only. The IC50 value was calculated by four-parameter nonlinear regression analysis using GraphPad Prism 7 software.

## CC[C@H](C)[C@@H]([C@@H](CC(=O)N1CCC[C@H]1[C@H](OC)[C@@H](C)C(=O)N[C@H](C)[C@@H](O)c1ccccc1)OC)N(C)C(=O)[C@@H](NC(=O)[C@@H](NC)C(C)C)C(C)C [MMAE, monomethyl auristatin E] (H-[NMeV]V[Dil][Dolaproine]-X1)
From 400 nM
  Max Inh %: 90.41%
Homo sapiens
  IC50: 0.12 nM

Reference: patent US20250114472A1, “CONJUGATE AND USE THEREOF” (BEIJING CHEMPION BIOTECHNOLOGY CO., LTD., priority 2022, published 2025)
